Patent US11738120B1, “Synthesis of taurolidine, purity profiles and polymorphs” (CorMedix Inc., priority 2022, dated 2023)
Like-named read-outs stand apart in the source and are kept apart here.

Assays:
[1] = cited from earlier work; for ΔpH @ −20° C.: pH shift during freezing
[2] = cited from earlier work
[3] = Solubility of taurolidine polymorphs in aqueous citric acid; type: physicochemical; conditions: in 26.1 mg/mL aqueous citric acid, at T=25° C.
Method: Taurolidine Polymorphs A and B synthesized according to the Present Synthesis may both be soluble in 26.1 mg/mL aqueous citric acid, at T=25° C.

[4] = Long term stability tests of taurolidine solution with citric acid and sodium citrate; type: physicochemical; conditions: citric acid and sodium citrate in combination; compared with taurolidine solution prepared with polyvinylpyrrolidone (PVP)
Text: The composition employed in the practice of the present invention preferably also contains a pharmacologically acceptable carrier solution, such as, water for injection.

Compound | pH @ 25° C. [1] | ΔpH @ −20° C. [1] | other results
CC(=O)O [Acetic acid] | 5.6 | +0.5 | –
O=C(O)CC(O)(CC(=O)O)C(=O)O [Citric acid] | 6.2 | −0.2 | –
N[C@@H](CCC(=O)O)C(=O)O [Glutamic acid] | – | – | pKa ([2]; second pKa value): 4.1; pKa ([2]; third pKa value printed in the cell): 9.5
N[C@@H](Cc1c[nH]cn1)C(=O)O [Histidine] | 5.4 | +0.8 | –
O=C(O)CC(O)C(=O)O (stereo not drawn) [Malic acid] | 5.0 | −0.3 | pKa ([2]; second pKa value): 3.4, 5.1
O=S1(=O)CCN(CN2CCS(=O)(=O)NC2)CN1 [Polymorph A, taurolidine] | – | – | solubility [3]: soluble
NC(CO)(CO)CO [Tromethamine] | 7.2 | +2.1 | –
O=S1(=O)CCN(CN2CCS(=O)(=O)NC2)CN1 [taurolidine] | – | – | stability and solubility of taurolidine in solution [4]: increases the stability and solubility
